# System: Key Grass and Sedge Weeds as well as Grass Crops
# Experiment: Post-Emergent Test II (Table 6)
# Assay type: in vivo
# Settings: post-emergence, 336 h, CYPSS, 70 g ai/ha, 14 days after application, read-out: Visual Growth Reduction (%) 14 Days After Application CYPSS
# In short: (§1)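 Visual injury ratings (0 = no injury, 100 = complete kill) were taken 14 days after treatment relative to untreated plants. Seedlings at the first or second true leaf stage received an overhead spray at 187 L/ha, and solvent-blank sprayed plants served as controls.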
row,SMILES,pest or weed control at 70 g/ha
1,COc1ccc(-c2nc(C(=O)O)c(Cl)c(N)c2F)cn1 [Compound 30],0 to 29%

# Same assay, conditions: post-emergence, 336 h, CYPSS, 140 g ai/ha, 14 days after application, read-out: Visual Growth Reduction (%) 14 Days After Application CYPSS
row,SMILES,pest or weed control at 140 g/ha
1,COc1ccc(-c2nc(C(=O)O)c(Cl)c(N)c2F)cn1 [Compound 30],0 to 29%

# Same assay, conditions: post-emergence, 336 h, DIGSA: crabgrass (Digitaria sanguinalis), 70 g ai/ha, 14 days after application, read-out: Visual Growth Reduction (%) 14 Days After Application DIGSA
row,SMILES,pest or weed control at 70 g/ha
1,COc1ccc(-c2nc(C(=O)O)c(Cl)c(N)c2F)cn1 [Compound 30],60 to 74%

# Same assay, conditions: post-emergence, 336 h, DIGSA: crabgrass (Digitaria sanguinalis), 140 g ai/ha, 14 days after application, read-out: Visual Growth Reduction (%) 14 Days After Application DIGSA
row,SMILES,pest or weed control at 140 g/ha
1,COc1ccc(-c2nc(C(=O)O)c(Cl)c(N)c2F)cn1 [Compound 30],60 to 74%

# Same assay, conditions: post-emergence, 336 h, ECHSS, 70 g ai/ha, 14 days after application, read-out: Visual Growth Reduction (%) 14 Days After Application ECHSS
row,SMILES,pest or weed control at 70 g/ha
1,COc1ccc(-c2nc(C(=O)O)c(Cl)c(N)c2F)cn1 [Compound 30],95 to 100%

# Same assay, conditions: post-emergence, 336 h, ECHSS, 140 g ai/ha, 14 days after application, read-out: Visual Growth Reduction (%) 14 Days After Application ECHSS
row,SMILES,pest or weed control at 140 g/ha
1,COc1ccc(-c2nc(C(=O)O)c(Cl)c(N)c2F)cn1 [Compound 30],95 to 100%

# Same assay, conditions: post-emergence, 336 h, ORYSS (crop), 70 g ai/ha, 14 days after application, read-out: Visual Growth Reduction (%) 14 Days After Application ORYSS
row,SMILES,pest or weed control at 70 g/ha
1,COc1ccc(-c2nc(C(=O)O)c(Cl)c(N)c2F)cn1 [Compound 30],30 to 44%

# Same assay, conditions: post-emergence, 336 h, ORYSS (crop), 140 g ai/ha, 14 days after application, read-out: Visual Growth Reduction (%) 14 Days After Application ORYSS
row,SMILES,pest or weed control at 140 g/ha
1,COc1ccc(-c2nc(C(=O)O)c(Cl)c(N)c2F)cn1 [Compound 30],45 to 59%

# Same assay, conditions: post-emergence, 336 h, SETFA: giant foxtail (Setaria faberi), 70 g ai/ha, 14 days after application, read-out: Visual Growth Reduction (%) 14 Days After Application SETFA
row,SMILES,pest or weed control at 70 g/ha
1,COc1ccc(-c2nc(C(=O)O)c(Cl)c(N)c2F)cn1 [Compound 30],75 to 84%

# Same assay, conditions: post-emergence, 336 h, SETFA: giant foxtail (Setaria faberi), 140 g ai/ha, 14 days after application, read-out: Visual Growth Reduction (%) 14 Days After Application SETFA
row,SMILES,pest or weed control at 140 g/ha
1,COc1ccc(-c2nc(C(=O)O)c(Cl)c(N)c2F)cn1 [Compound 30],85 to 94%

# Same assay, conditions: post-emergence, 336 h, SORVU: grain sorghum (Sorghum vulgare), 70 g ai/ha, 14 days after application, read-out: Visual Growth Reduction (%) 14 Days After Application SORVU
row,SMILES,pest or weed control at 70 g/ha
1,COc1ccc(-c2nc(C(=O)O)c(Cl)c(N)c2F)cn1 [Compound 30],45 to 59%

# Same assay, conditions: post-emergence, 336 h, SORVU: grain sorghum (Sorghum vulgare), 140 g ai/ha, 14 days after application, read-out: Visual Growth Reduction (%) 14 Days After Application SORVU
row,SMILES,pest or weed control at 140 g/ha
1,COc1ccc(-c2nc(C(=O)O)c(Cl)c(N)c2F)cn1 [Compound 30],85 to 94%

# Same assay, conditions: post-emergence, 336 h, TRZSS (crop), 70 g ai/ha, 14 days after application, read-out: Visual Growth Reduction (%) 14 Days After Application TRZSS
row,SMILES,pest or weed control at 70 g/ha
1,COc1ccc(-c2nc(C(=O)O)c(Cl)c(N)c2F)cn1 [Compound 30],0 to 29%

# Same assay, conditions: post-emergence, 336 h, TRZSS (crop), 140 g ai/ha, 14 days after application, read-out: Visual Growth Reduction (%) 14 Days After Application TRZSS
row,SMILES,pest or weed control at 140 g/ha
1,COc1ccc(-c2nc(C(=O)O)c(Cl)c(N)c2F)cn1 [Compound 30],0 to 29%

# Same assay, conditions: post-emergence, 336 h, ZEAMX: maize, corn (Zea mays), 70 g ai/ha, 14 days after application, read-out: Visual Growth Reduction (%) 14 Days After Application ZEAMX
row,SMILES,pest or weed control at 70 g/ha
1,COc1ccc(-c2nc(C(=O)O)c(Cl)c(N)c2F)cn1 [Compound 30],95 to 100%

# Same assay, conditions: post-emergence, 336 h, ZEAMX: maize, corn (Zea mays), 140 g ai/ha, 14 days after application, read-out: Visual Growth Reduction (%) 14 Days After Application ZEAMX
row,SMILES,pest or weed control at 140 g/ha
1,COc1ccc(-c2nc(C(=O)O)c(Cl)c(N)c2F)cn1 [Compound 30],95 to 100%

# System: not given
# Experiment: not given
# Settings: not given
row,melting point,SMILES
1,166 to 167 °C,COc1ccc(-c2nc(C(=O)O)c(Cl)c(N)c2F)cn1 [Compound 30]

# System: Key Broadleaf Weed and Crop Species
# Experiment: Post-Emergent Test II (Table 5)
# Assay type: in vivo
# Settings: Abutilon theophrasti, post-emergence, 336 h, ABUTH: velvetleaf (Abutilon theophrasti), application rate 70 (kg ai/ha; footnote: g ai/ha), read-out: Visual Growth Reduction (%) 14 Days After Application ABUTH
# In short: as §1
row,SMILES,pest or weed control at 70 g/ha
1,COc1ccc(-c2nc(C(=O)O)c(Cl)c(N)c2F)cn1 [Compound 30],95 to 100%

# Same assay, conditions: Abutilon theophrasti, post-emergence, 336 h, ABUTH: velvetleaf (Abutilon theophrasti), application rate 140 (kg ai/ha; footnote: g ai/ha), read-out: Visual Growth Reduction (%) 14 Days After Application ABUTH
row,SMILES,pest or weed control at 140 g/ha
1,COc1ccc(-c2nc(C(=O)O)c(Cl)c(N)c2F)cn1 [Compound 30],95 to 100%

# Same assay, conditions: Amaranthus retroflexus, post-emergence, 336 h, AMARE: redroot pigweed (Amaranthus retroflexus), application rate 70 (kg ai/ha; footnote: g ai/ha), read-out: Visual Growth Reduction (%) 14 Days After Application AMARE
row,SMILES,pest or weed control at 70 g/ha
1,COc1ccc(-c2nc(C(=O)O)c(Cl)c(N)c2F)cn1 [Compound 30],95 to 100%

# Same assay, conditions: Amaranthus retroflexus, post-emergence, 336 h, AMARE: redroot pigweed (Amaranthus retroflexus), application rate 140 (kg ai/ha; footnote: g ai/ha), read-out: Visual Growth Reduction (%) 14 Days After Application AMARE
row,SMILES,pest or weed control at 140 g/ha
1,COc1ccc(-c2nc(C(=O)O)c(Cl)c(N)c2F)cn1 [Compound 30],95 to 100%

# Same assay, conditions: Brassica napus, post-emergence, 336 h, BRSSS: oilseed rape, canola (Brassica napus), application rate 70 (kg ai/ha; footnote: g ai/ha), read-out: Visual Growth Reduction (%) 14 Days After Application BRSSS
row,SMILES,pest or weed control at 70 g/ha
1,COc1ccc(-c2nc(C(=O)O)c(Cl)c(N)c2F)cn1 [Compound 30],95 to 100%

# Same assay, conditions: Brassica napus, post-emergence, 336 h, BRSSS: oilseed rape, canola (Brassica napus), application rate 140 (kg ai/ha; footnote: g ai/ha), read-out: Visual Growth Reduction (%) 14 Days After Application BRSSS
row,SMILES,pest or weed control at 140 g/ha
1,COc1ccc(-c2nc(C(=O)O)c(Cl)c(N)c2F)cn1 [Compound 30],95 to 100%

# Same assay, conditions: Chenopodium album, post-emergence, 336 h, CHEAL: lambsquarters (Chenopodium album), application rate 70 (kg ai/ha; footnote: g ai/ha), read-out: Visual Growth Reduction (%) 14 Days After Application CHEAL
row,SMILES,pest or weed control at 70 g/ha
1,COc1ccc(-c2nc(C(=O)O)c(Cl)c(N)c2F)cn1 [Compound 30],95 to 100%

# Same assay, conditions: Chenopodium album, post-emergence, 336 h, CHEAL: lambsquarters (Chenopodium album), application rate 140 (kg ai/ha; footnote: g ai/ha), read-out: Visual Growth Reduction (%) 14 Days After Application CHEAL
row,SMILES,pest or weed control at 140 g/ha
1,COc1ccc(-c2nc(C(=O)O)c(Cl)c(N)c2F)cn1 [Compound 30],95 to 100%

# Same assay, conditions: Euphorbia heterophylla, post-emergence, 336 h, EPHHL: wild poinsettia (Euphorbia heterophylla), application rate 70 (kg ai/ha; footnote: g ai/ha), read-out: Visual Growth Reduction (%) 14 Days After Application EPHHL
row,SMILES,pest or weed control at 70 g/ha
1,COc1ccc(-c2nc(C(=O)O)c(Cl)c(N)c2F)cn1 [Compound 30],95 to 100%

# Same assay, conditions: Euphorbia heterophylla, post-emergence, 336 h, EPHHL: wild poinsettia (Euphorbia heterophylla), application rate 140 (kg ai/ha; footnote: g ai/ha), read-out: Visual Growth Reduction (%) 14 Days After Application EPHHL
row,SMILES,pest or weed control at 140 g/ha
1,COc1ccc(-c2nc(C(=O)O)c(Cl)c(N)c2F)cn1 [Compound 30],95 to 100%

# Same assay, conditions: Helianthus annuus, post-emergence, 336 h, HELAN: sunflower (Helianthus annuus), application rate 70 (kg ai/ha; footnote: g ai/ha), read-out: Visual Growth Reduction (%) 14 Days After Application HELAN
row,SMILES,pest or weed control at 70 g/ha
1,COc1ccc(-c2nc(C(=O)O)c(Cl)c(N)c2F)cn1 [Compound 30],95 to 100%

# Same assay, conditions: Helianthus annuus, post-emergence, 336 h, HELAN: sunflower (Helianthus annuus), application rate 140 (kg ai/ha; footnote: g ai/ha), read-out: Visual Growth Reduction (%) 14 Days After Application HELAN
row,SMILES,pest or weed control at 140 g/ha
1,COc1ccc(-c2nc(C(=O)O)c(Cl)c(N)c2F)cn1 [Compound 30],95 to 100%

# Same assay, conditions: Viola tricolor, post-emergence, 336 h, VIOTR: wild pansy (Viola tricolor), application rate 70 (kg ai/ha; footnote: g ai/ha), read-out: Visual Growth Reduction (%) 14 Days After Application VIOTR
row,SMILES,pest or weed control at 70 g/ha
1,COc1ccc(-c2nc(C(=O)O)c(Cl)c(N)c2F)cn1 [Compound 30],0 to 29%

# Same assay, conditions: Viola tricolor, post-emergence, 336 h, VIOTR: wild pansy (Viola tricolor), application rate 140 (kg ai/ha; footnote: g ai/ha), read-out: Visual Growth Reduction (%) 14 Days After Application VIOTR
row,SMILES,pest or weed control at 140 g/ha
1,COc1ccc(-c2nc(C(=O)O)c(Cl)c(N)c2F)cn1 [Compound 30],0 to 29%

# Source: patent US10765114B2, “4-amino-6-(pyridyl and 2-substitutedphenyl)-picolinates and 6-amino-2-(pyridyl and 2-substitutedphenyl)-pyrimidine-4-carboxylates and their use as herbicides” (Dow AgroSciences LLC, priority 2013, dated 2020)
